Experimental data from US9540392B2, “Thienopyrimidines” (BAYER PHARMA AKTIENGESELLSCHAFT, priority 2012, dated 2017).

Molecular target: T1, human full-length MKNK1 (Homo sapiens, UniProt Q9BUB5, T385D)
T1 construct: GST (N); purchased Carna Biosciences 02-145; host or cells: insect cells (baculovirus expression system)
Experiment: MKNK1 kinase high ATP assay (TR-FRET)
Assay type: biochemical
Details: 2 mM ATP, after preincubation with MKNK1; read-out: MKNK1 IC50 (MKNK1 high ATP)
How it was run: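 Compound was preincubated 15 min at 22° C. with MKNK1 in 50 mM HEPES pH 7.5, 5 mM MgCl2, 1.0 mM DTT, then the reaction ran 30 min at 22° C. with 2 mM ATP and 0.06 μM biotinylated peptide (final).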

T1 sequence (Q9BUB5 1-424 isoform Q9BUB5-2 T344D): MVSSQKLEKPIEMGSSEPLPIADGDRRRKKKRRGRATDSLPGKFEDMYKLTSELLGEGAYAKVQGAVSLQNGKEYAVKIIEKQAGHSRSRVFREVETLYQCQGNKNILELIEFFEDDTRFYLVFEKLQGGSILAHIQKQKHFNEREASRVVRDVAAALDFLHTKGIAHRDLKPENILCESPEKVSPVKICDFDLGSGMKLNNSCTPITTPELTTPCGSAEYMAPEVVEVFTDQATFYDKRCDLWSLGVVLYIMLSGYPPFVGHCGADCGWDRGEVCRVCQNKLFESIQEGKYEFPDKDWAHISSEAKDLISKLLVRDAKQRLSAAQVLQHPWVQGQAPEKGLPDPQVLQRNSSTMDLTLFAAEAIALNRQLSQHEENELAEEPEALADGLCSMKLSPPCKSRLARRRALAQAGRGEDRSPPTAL

**Q.** With `CN1CCN(CCNC(=O)C2CCc3c(sc4ncnc(Nc5ccc6[nH]ncc6c5)c34)C2)CC1` (racemic) [Example 144, (RS)-4-(1H-indazol-5-ylamino)-N-[2-(4-methylpiperazin-1-yl)ethyl]-5,6,7,8-tetrahydro[1]benzothieno[2,3-d]pyrimidine-7-carboxamide] as the compound, how does the IC50 read?
**A.** 21.7 nM

**Q.** With `CN(C)C(=O)CN1CCN(C(=O)C2CCc3c(sc4ncnc(Nc5ccc6[nH]ncc6c5)c34)C2)CC1` (racemic) [Example 143, (RS)-2-(4-{[4-(1H-indazol-5-ylamino)-5,6,7,8-tetrahydro[1]benzothieno[2,3-d]pyrimidin-7-yl]carbonyl}piperazin-1-yl)-N,N-dimethylacetamide] as the compound, how does the IC50 read?
**A.** 19.5 nM

**Q.** Which IC50 does the source give for `CN(C)CCCN(C)C(=O)C1CCc2c(sc3ncnc(Nc4ccc5[nH]ncc5c4)c23)C1` (racemic) [Example 96, (RS)-N-[3-(dimethylamino)propyl]-4-(1H-indazol-5-ylamino)-N-methyl-5,6,7,8-tetrahydro[1]benzothieno[2,3-d]pyrimidine-7-carboxamide] here?
**A.** 16.3 nM

**Q.** For `Cc1cnc(CNC(=O)C2CCc3c(sc4ncnc(Nc5ccc6[nH]ncc6c5)c34)C2)cn1` (racemic) [Example 148, (RS)-4-(1H-indazol-5-ylamino)-N-[(5-methylpyrazin-2-yl)methyl]-5,6,7,8-tetrahydro[1]benzothieno[2,3-d]pyrimidine-7-carboxamide], which IC50 is on record?
**A.** 8.1 nM

**Q.** For `CCOc1cc2[nH]ncc2cc1Nc1ncnc2sc3c(c12)CCC(C(=O)N1CCC(C#N)C1)C3` (racemic) [Example 265, (3RS)-1-({(7RS)-4-[(6-Ethoxy-1H-indazol-5-yl)amino]-5,6,7,8-tetrahydro[1]benzothieno[2,3-d]pyrimidin-7-yl}carbonyl)pyrrolidine-3-carbonitrile], which IC50 is on record?
**A.** 1.2 nM

**Q.** Which IC50 does the source give for `CC(C)NC(=O)C1CCc2c(sc3ncnc(Nc4ccc5[nH]ncc5c4)c23)C1` (stereo not drawn) [Example 6, 4-(1H-Indazol-5-ylamino)-N-isopropyl-5,6,7,8-tetrahydro[1]benzothieno[2,3-d]pyrimidine-7-carboxamide] here?
**A.** 4 nM

**Q.** With `Cc1ccc(NC(=O)C2CCc3c(sc4ncnc(Nc5ccc6[nH]ncc6c5)c34)C2)cc1` (stereo not drawn) [Example 17, 4-(1H-indazol-5-ylamino)-N-(4-methylphenyl)-5,6,7,8-tetrahydro[1]benzothieno[2,3-d]pyrimidine-7-carboxamide] as the compound, how does the IC50 read?
**A.** 5 nM

**Q.** Which IC50 does the source give for `O=C(C1CCc2c(sc3ncnc(Nc4ccc5[nH]ncc5c4)c23)C1)N1CC=CC1` (racemic) [Example 184, (RS)-2,5-dihydro-1H-pyrrol-1-yl[4-(1H-indazol-5-ylamino)-5,6,7,8-tetrahydro[1]benzothieno[2,3-d]pyrimidin-7-yl]methanone] here?
**A.** 12.4 nM

**Q.** Which IC50 does the source give for `COc1cc2[nH]ncc2cc1Nc1ncnc2sc3c(c12)CCC(C(=O)N1CC2(CCS2(=O)=O)C1)C3` (racemic) [Example 264, (RS)-(1,1-Dioxido-1-thia-6-azaspiro[3.3]hept-6-yl){4-[(6-methoxy-1H-indazol-5-yl)amino]-5,6,7,8-tetrahydro[1]benzothieno[2,3-d]pyrimidin-7-yl}methanone] here?
**A.** 2.2 nM

**Q.** `N#Cc1ccc(N2CCN(C(=O)C3CCc4c(sc5ncnc(Nc6ccc7[nH]ncc7c6)c45)C3)CC2)cc1` (racemic) [Example 141, (RS)-4-(4-{[4-(1H-indazol-5-ylamino)-5,6,7,8-tetrahydro[1]benzothieno[2,3-d]pyrimidin-7-yl]carbonyl}piperazin-1-yl)benzonitrile] was tested. Which IC50 did it give?
**A.** 17.4 nM

**Q.** How did the IC50 turn out when `CS(=O)(=O)N1CCN(C(=O)C2CCc3c(sc4ncnc(Nc5ccc6[nH]ncc6c5)c34)C2)CC1` (racemic) [Example 156, (RS)-[4-(1H-indazol-5-ylamino)-5,6,7,8-tetrahydro[1]benzothieno[2,3-d]pyrimidin-7-yl][4-(methylsulfonyl)piperazin-1-yl]methanone] was run?
**A.** 18.3 nM

**Q.** How did the IC50 turn out when `O=C(Nc1ccnnc1)C1CCc2c(sc3ncnc(Nc4ccc5[nH]ncc5c4)c23)C1` (racemic) [Example 128, (RS)-4-(1H-indazol-5-ylamino)-N-(pyridazin-4-yl)-5,6,7,8-tetrahydro[1]benzothieno[2,3-d]pyrimidine-7-carboxamide] was run?
**A.** 15 nM
